Reference: patent publication US12383499B2, “Scale up synthesis of silicasome nanocarriers” (The Regents of the University of California, priority 2018, dated 2025)
Counter-ions that a name gives are not always drawn.

Legend:
KPC cells = assay: MTS cytotoxicity assay, KPC cells; type: cell-based, murine; settings: KPC pancreatic cancer cells
Experimental: (§1) The cytotoxicity of purified MSNPs was assessed in a standard MTS assay (CellTiter 96® AQueous One Solution Cell Proliferation Assay, Promega). KPC or MC38 cells were plated at a density of 5×10^3 cells per well in a 96-well plate and cultured for 24 hr. The medium was replaced with fresh medium containing the different NPs at the indicated concentrations. Non-treated cells were used as control. After a 48 hr treatment, the medium was replaced with 100 μL fresh medium containing MTS solution (5:1, v/v medium/CellTiter 96® Aqueous stock solution) for further culture at 37° C. for 1 hr. The absorbance of the culture wells at 490 nm was directly recorded by a microplate reader (M5e, Molecular Device, USA). Wells without cells but contained the same MTS solution were used as blank. The relative cell viability (%) is [(the absorption of treated well−blank)/(the absorption of control well−blank)]×100.

[1] = system: orthotopic KPC-derived PDAC tumor; assay: Efficacy and survival in the orthotopic KPC-derived PDAC model; type: in vivo, B6/129SF1/J mice; settings: 40 mg/kg twice per week, three IV administrations, n=3
MC38 cells = assay: MTS cytotoxicity assay, MC38 cells; type: cell-based, murine; settings: MC38 colon cancer cells
Experimental: as §1

orthotopic MC38 tumor = assay: Efficacy and survival in the orthotopic MC38 tumor chunk colon cancer model; type: in vivo, C57BL/6 mice
[2] = Toxicity study (bone marrow, GI tract, liver, body weight); type: in vivo, C57BL/6 mice; settings: 24 h after 4 IV injections of 40 mg/kg irinotecan
From the text: Irinotecan exerts major systemic toxicological effects (e.g., neutropenia and diarrhea) when used as a free drug monotherapy or in combination with 5-FU (i.e., FOLFIRI regimen) in CRC (Cunningham et al. (1998) The Lancet, 352, 1413-1418; Rougier et al. (1998) The Lancet, 352: 1407-1412; Saltz et al. (2000) N. Engl. J Med. 343: 905-914). This constitutes one of the principal reasons for considering encapsulated irinotecan delivery. […] The possibility of acute myelosuppression effects was assessed by the collection of whole blood 24 h after the last IV injection, as well as looking at bone marrow cellularity (Id.). […] The visual appearance was confirmed by computer software that semi-quantitatively scored the total marrow cellularity and hematopoietic nuclei in the histology images (FIG. 13, panel A) (Travlos (2006) Toxicol. Pathol. 34: 548-565). […]
To compare the toxicity of different irinotecan formulations, a toxicity study was performed in healthy female C57BL/6 mice using a published protocol (Iusuf et al. (2014) Mol. Cancer Ther. 13: 492-503). […] H&E staining to assess bone marrow and hematopoietic cellularity in the sternum was analyzed by Aperio ImageScope software (Travlos (2006) Toxicol. Pathol. 34: 548-565).

non-metastatic PDAC = settings: cited from earlier work

CCc1c2c(nc3ccc(OC(=O)N4CCC(N5CCCCC5)CC4)cc13)-c1cc3c(c(=O)n1C2)COC(=O)[C@]3(O)CC [free irinotecan, Irinotecan hydrochloride trihydrate]
in vitro killing effect (MTS) (KPC cells): most robust killing effect
primary tumor growth and metastasis (IVIS imaging) [1]: inefficient tumor inhibition
in vitro killing effect (MTS) (MC38 cells): most robust killing effect
tumor growth by IVIS bioluminescence imaging (orthotopic MC38 tumor; 40 mg/kg irinotecan equivalent IV twice per week, up to day 21, n=6): no significant tumor growth inhibition
survival (Kaplan-Meier, Log-rank) (orthotopic MC38 tumor; 40 mg/kg irinotecan equivalent IV twice per week, up to six administrations, n=6): no significant survival benefit
rate of apoptosis (cleaved caspase-3 IHC) in orthotopic tumors (orthotopic MC38 tumor; 24 h after the 4th IV injection, 40 mg/kg, n=3): ~2.5%
bone marrow cellularity / myelosuppressive effects (sternum H&E) [2]: significant myelosuppressive effects
neutrophil count / neutropenia (differential WBC counts) [2]: significant degree of neutropenia

Nc1ccn([C@@H]2O[C@H](CO)[C@@H](O)C2(F)F)c(=O)n1 [gemcitabine]
disease-free survival (non-metastatic PDAC): 12.8 months
